Measurements published in US7795208B2, “Methods of using deacetylase inhibitors to promote cell differentiation and regeneration” (The Salk Institute for Biological Study, priority 2001, dated 2010).
“And” between values parts separate entries of the source, which are not always exact repeats. Equal values may be shown once.

Assays:
MyoD = test: In vivo acetylation assay (3H-acetate incorporation); type: cell-based, mouse; details: myoblasts cultured in GM
Protocol: In FIG. 3A, MyoD acetylation in undifferentiated C2C12 myoblasts (GM) untreated (−) or treated with either sodium butyrate (Butyr.) or TSA and in differentiated myotubes (abbrev. DM in FIG. 3A, but not to be confused with the abbreviation for “differentiation medium” as used elsewhere herein) was measured by ^3H incorporation of exogenously transfected Flag-tagged MyoD following metabolic labeling with ^3H sodium acetate as described in Sartorelli, V., et al., Molecular Cell 4:725-34 (1999). […] Chromatin was immunoprecipitated with antibodies against acetyl-histone 4 (AcH4) or IgG (as a control). Purified DNA from anti-AcH4 immunoprecipitated chromatin was analyzed by PCR using primers recognizing GAPDH promoter and MCK enhancer as described in Example 1. Unbound DNA (lanes 2 and 3, top panel) is an aliquot of chromatin not immunoprecipitated by anti-AcH4 antibody and amplified with GAPDH primers. Input (lanes 2 and 3, bottom panel) is an aliquot (1%) of the chromatin analyzed before the immunoprecipitation to quantify the amount of DNA present in different samples. […] Myoblasts were then formaldehyde cross-linked and processed.
In vivo acetylation assay was performed as described in Sartorelli, V., et al., Molecular Cell 4:725-34 (1999).
The acetylation of MyoD by ^3H-acetate incorporation in myoblasts, cultured in either the absence or presence of TSA, was evaluated. […]

cyclinA-luc = test: Integrated cyclinA-luc reporter in stable C2C12 clone; type: cell-based, mouse; details: TSA treatment in GM
Protocol: FIGS. 2A-D are graphs showing DI activation muscle-specific transcription in skeletal muscle cells. […] Luciferase activity was measured in non-treated cells cultured in either GM (GM) or DM (DM). Alternatively, C2C12 were exposed to sodium butyrate for 24 hours in GM and then switched to DM without sodium butyrate (Butyr/GM>DM) or treated with sodium butyrate when cultured in DM (Butyr/DM) before being analyzed for luciferase activity. […] Luciferase assays were performed after culturing the cells for 48 hours in DM without sodium butyrate. […] The reporter activity was also analyzed in cells differentiated in the absence of TSA (DM)
Mouse muscle myoblast C2C12 cells (obtained from the American Type Culture Collection, ATCC CRL-1772) and CC42 cells (from Dr. Kenneth Walsh, Tufts University School of Medicine) were cultured in DMEM supplemented with 20% fetal bovine serum, 2 mM glutamine and 1× kanamycin (growth medium, GM). Cellular differentiation was induced with DMEM supplemented with 2% horse serum and 1× insulin, transferring, selenium (Life Technologies). Human skeletal myocytes (CC-2561) were purchased from Clonetics. […] Following transfections, luciferase activity was determined using the Dual-Luciferase reporter assay system (Promega) on a microtiter luminescence detection system (MLX, Dynex). […]

mouse embryos = test: Embryos of pregnant MLC1/3F-nLacZ mice exposed in utero (somitogenesis, muscle gene expression); type: in vivo
Protocol: MLC1/3F-nLacZ pregnant mice (E 8.5) received intra peritoneal injection of 15 μg of TSA (WAKO chemicals, Neuss Germany) or VPA (Sigma) at E 8.5 and E 9.5 as described in Faiella, A., et al., Hum Mol Genet 9:227-36 (2000), and Nervi, C., et al., Cancer Res 61:1247-9 (2001). VPA was dissolved in distilled water and administered at doses of 6 mg/mice (about 150 μg/ml) every 12 h at E 8.5, E 9, E 9.5, E 10 as described in Faiella et al. (2000). […] Mice were sacrificed at E 10.5, and the embryos were observed under a dissecting stereo-microscope to evaluate their viability, presence of external malformations, and number of somites. Embryos were fixed in 4% paraformaldehyde for histology and X-Gal staining or immunocytochemistry using antibodies against MyoD and myosin heavy chains as described in Tajbakhsh, S., et al., Neuron 13:813-21 (1994).
DI was administered intraperitoneally to pregnant mice (at a concentration of 0.5 to 1 mg/Kg for TSA and 200 mg/Kg for VPA) at post-implantation stages of E 8.5, and the pregnant mice were sacrificed at 10.5, when MyoD expression is clearly detectable in the myotomes. […] In Table 2, Somites of MLC1/3F-nLacZ mice (injected at day 8.5 and sacrificed at day 10.5) were scored after staining the embryos to detect β-galactosidase activity.

[1] = i.p. to pregnant mice at E 8.5, sacrificed at 10.5, 0.5 to 1 mg/Kg TSA, 200 mg/Kg VPA
[2] = treated at E 8.5, sacrificed at E 9.5

## CC(/C=C/C(=O)NO)=C\[C@@H](C)C(=O)c1ccc(N(C)C)cc1 [TSA, trichostatin A]
MyoD
  incorporation of 3H-acetate into transfected MyoD: stimulated the incorporation
cyclinA-luc
  serum-dependent transcription of integrated cyclinA-luc: not stimulated
Mouse embryos; E 10.5 embryos, vs control embryos
  level of MLC-lacZ transgene expression: higher level of MLC-lacZ transgene expression
Mouse embryos; MLC1/3F-nLacZ mice injected at day 8.5, sacrificed at day 10.5, TSA [1 mg/ml] (20 ul + 380 ul PBS), VPA 155 mM, one value per embryo, PBS controls 25-32
  # somites (β-galactosidase staining): 32 and 37 and 34 and 36 and 33
Mouse embryos; animals exposed to a DI
  Notch transcripts: increased
Mouse embryos; extracts of total embryos
  levels of MHC in exposed embryos (Western blot): augmented the levels of MHC
Mouse embryos; [1]
  number of MLC expressing somites: consistently increased
  number of MyoD expressing myotomes: consistently increased
Mouse embryos; [2]
  acetylation of histone H4 in embryos: increased acetylation of histone H4
  embryo size vs control embryos: modestly and consistently larger than control embryos
  increase in number of somites vs control embryos: +2 to +6
  number of somites expressing Myf-5: increased
